# Laboratory results published in patent US5789431A, “Naphthoquinone antitumor compound and method” (The University of North Carolina at Chapel Hill, priority 1996, dated 1998).
# Columns and labels:
# human tumor cell lines = format: cell-based; conditions: for GI50: Homo sapiens, cancer cell panel, general / most cell lines, read-out: logGI50 values in the cancer cell line panel (converted)
# MALME-3M = test: in vitro melanoma cell growth inhibition (NCI screen)
# UACC-62 = test: as above
# K-562 = test: in vitro leukemia cell growth inhibition (NCI screen)
# MOLT-4 = test: as above
# COLO-205 = test: in vitro colon cancer cell growth inhibition (NCI screen)
# HCT-116 = test: as above
# HCT-15 = test: as above
# SW 620 = test: as above
# ACHN = test: in vitro renal cancer cell growth inhibition (NCI screen)
# RXF-393 = test: as above
# TK-10 = test: as above
# IGROV1 = test: in vitro ovarian cancer cell growth inhibition (NCI screen)
# OVCAR-3 = test: as above
# MCF-7 = test: in vitro breast cancer cell growth inhibition (NCI screen)
# MCF7/ADR-RES = test: as above
# MDA-MB-435 = test: as above
# MDA-N = test: as above
# BT-549 = test: as above
# T-47D = test: as above
# PC-3 = test: in vitro prostate cancer cell growth inhibition (NCI screen)
# HOP-92 = test: in vitro non-small cell lung cancer cell growth inhibition (NCI screen)
# NCI-H266 = test: as above
# NCI-H23 = test: as above
# NCI-H522 = test: as above
# M14 = test: in vitro melanoma cell growth inhibition (NCI screen)
# SK-MEL-28 = test: as above
# SK-MEL-5 = test: as above
# UACC-257 = test: as above
# CCRF-CEM = test: in vitro leukemia cell growth inhibition (NCI screen)
# HL-60(TB) = test: as above
# RPMI-8226 = test: as above
# U 251 = test: in vitro CNS cancer cell growth inhibition (NCI screen)
# KM 12 = test: in vitro colon cancer cell growth inhibition (NCI screen)
# LOX1MVI = test: in vitro melanoma cell growth inhibition (NCI screen)
# M19-MEL = test: as above
# SR = test: in vitro leukemia cell growth inhibition (NCI screen)
# SNB-75 = test: in vitro CNS cancer cell growth inhibition (NCI screen)
# XF-498 = test: as above
# HT 29 = test: in vitro colon cancer cell growth inhibition (NCI screen)
# SN12C = test: in vitro renal cancer cell growth inhibition (NCI screen)
# UO-31 = test: as above
# NCI-H460 = test: in vitro non-small cell lung cancer cell growth inhibition (NCI screen)
# SK-MEL-2 = test: in vitro melanoma cell growth inhibition (NCI screen)
# KM 20L2 = test: in vitro colon cancer cell growth inhibition (NCI screen)
# SF-539 = test: in vitro CNS cancer cell growth inhibition (NCI screen)
# OVCAR-4 = test: in vitro ovarian cancer cell growth inhibition (NCI screen); conditions: OVACR-4
# HCC-2998 = test: in vitro colon cancer cell growth inhibition (NCI screen)
# OVCAR-8 = test: in vitro ovarian cancer cell growth inhibition (NCI screen)
Structure (SMILES),cytotoxicity log GI50 (MALME-3M),cytotoxicity log GI50 (UACC-62),cytotoxicity log GI50 (K-562),cytotoxicity log GI50 (MOLT-4),cytotoxicity log GI50 (COLO-205),cytotoxicity log GI50 (HCT-116),cytotoxicity log GI50 (HCT-15),cytotoxicity log GI50 (SW 620),cytotoxicity log GI50 (ACHN),cytotoxicity log GI50 (RXF-393),cytotoxicity log GI50 (OVCAR-3),cytotoxicity log GI50 (MCF7/ADR-RES),cytotoxicity log GI50 (PC-3),cytotoxicity log GI50 (HOP-92),cytotoxicity log GI50 (NCI-H23),cytotoxicity log GI50 (NCI-H522),cytotoxicity log GI50 (SK-MEL-5),cytotoxicity log GI50 (UACC-257),cytotoxicity log GI50 (HL-60(TB)),cytotoxicity log GI50 (M19-MEL),also measured
"O=C(NC1=C(Cl)C(=O)c2ccccc2C1=O)c1ccccc1 [Compound 2e, 2-Benzoylamino-3-chloro-1,4-naphthoquinone]",-4.77 M,-4.62 M,-4.66 M,-4.70 M,-4.81 M,-4.76 M,-4.60 M,-4.76 M,-4.68 M,-4.72 M,-4.72 M,-4.73 M,-4.60 M,-4.60 M,-4.62 M,-4.62 M,,,,,GI50 (human tumor cell lines): 10 to 100 µM; cytotoxicity log GI50 (TK-10): -4.64 M; cytotoxicity log GI50 (IGROV1): -4.66 M; cytotoxicity log GI50 (MCF-7): -4.72 M; cytotoxicity log GI50 (MDA-MB-435): -4.72 M; cytotoxicity log GI50 (MDA-N): -5.30 M; cytotoxicity log GI50 (BT-549): -4.70 M; cytotoxicity log GI50 (T-47D): -4.66 M; cytotoxicity log GI50 (NCI-H266): -4.61 M
COc1ccc(C(=O)NC2=C(Cl)C(=O)c3ccccc3C2=O)cc1 [Compound 2g],-5.92 M,-6.12 M,-5.85 M,,-5.76 M,-6.36 M,-6.37 M,-6.17 M,-6.44 M,-6.23 M,-5.79 M,-5.85 M,-5.90 M,-5.82 M,,-6.42 M,-5.89 M,-5.79 M,-6.35 M,,GI50 (human tumor cell lines): ~1 µM; cytotoxicity log GI50 (M14): -6.20 M; cytotoxicity log GI50 (SK-MEL-28): -6.17 M; cytotoxicity log GI50 (CCRF-CEM): -6.10 M; cytotoxicity log GI50 (RPMI-8226): -6.02 M; cytotoxicity log GI50 (U 251): -5.83 M; cytotoxicity log GI50 (KM 12): -5.82 M; cytotoxicity log GI50 (BT-549): -5.77 M; cytotoxicity log GI50 (T-47D): -5.90 M; cytotoxicity log GI50 (NCI-H266): -5.87 M
Cc1nc2c(n1C(C)(C)C)C(=O)c1ccccc1C2=O [Compound 8],-4.35 M,-4.35 M,-4.30 M,-4.31 M,,,,,-4.31 M,,-4.41 M,,,-5.03 M,-4.42 M,-4.36 M,-4.41 M,-4.37 M,-4.34 M,-4.61 M,cytotoxicity log GI50 (LOX1MVI): -4.38 M; cytotoxicity log GI50 (SR): -4.35 M; cytotoxicity log GI50 (SNB-75): -4.50 M; cytotoxicity log GI50 (XF-498): -4.36 M; cytotoxicity log GI50 (HT 29): -4.36 M; cytotoxicity log GI50 (SN12C): -4.30 M; cytotoxicity log GI50 (UO-31): -4.43 M; cytotoxicity log GI50 (NCI-H460): -4.44 M
Cc1nc2c(n1CCN(C)C)C(=O)c1ccccc1C2=O [Compound 15],-5.55 M,-4.92 M,,,-5.35 M,,-4.89 M,,,,-5.15 M,,,,-4.92 M,-5.27 M,-5.13 M,,-5.28 M,-5.69 M,cytotoxicity against tumor cells (in words) (human tumor cell lines; cancer cell line panel): comparable to those of compounds 6-14; cytotoxicity log GI50 (M14): -4.93 M; cytotoxicity log GI50 (SK-MEL-2): -4.91 M; cytotoxicity log GI50 (SR): -4.93 M; cytotoxicity log GI50 (HT 29): -4.98 M; cytotoxicity log GI50 (KM 20L2): -5.20 M; cytotoxicity log GI50 (NCI-H460): -5.01 M
CC(=O)NC1=C(NCCN(C)C)C(=O)c2ccccc2C1=O [Compound 39],-5.12 M,-4.98 M,-4.91 M,,-5.00 M,-5.08 M,-5.02 M,,,,,,,,-4.94 M,-4.99 M,-5.14 M,-5.03 M,-5.01 M,-5.12 M,cytotoxicity log GI50 (LOX1MVI): -4.90 M; cytotoxicity log GI50 (SF-539): -4.93 M; cytotoxicity log GI50 (U 251): -4.99 M; cytotoxicity log GI50 (SN12C): -4.98 M; cytotoxicity log GI50 (OVCAR-4): -5.05 M; cytotoxicity log GI50 (NCI-H460): -4.89 M
CC(=O)NC1=C(NCCO)C(=O)c2ccccc2C1=O [Compound 40],-4.89 M,,,,,-4.52 M,,,,,-4.72 M,,,,,-4.61 M,-4.53 M,,-4.68 M,-5.01 M,cytotoxicity log GI50 (KM 20L2): -4.62 M
CCNC1=C(NC(=O)c2ccc(OC)cc2)C(=O)c2ccccc2C1=O [Compound 49],-4.67 M,-4.40 M,,-4.44 M,-4.43 M,-4.44 M,,-4.36 M,,-4.55 M,-4.62 M,-4.54 M,-4.48 M,,-4.36 M,-4.51 M,-4.46 M,-4.71 M,,,cytotoxicity log GI50 (M14): -4.67 M; cytotoxicity log GI50 (HCC-2998): -4.43 M; cytotoxicity log GI50 (HT 29): -4.63 M; cytotoxicity log GI50 (OVCAR-4): -4.46 M; cytotoxicity log GI50 (MDA-MB-435): -4.77 M; cytotoxicity log GI50 (MDA-N): -4.43 M; cytotoxicity log GI50 (OVCAR-8): -4.61 M
